According to patent publication US20100285959A1, “HERBICIDAL MIXTURES” (priority 2006, published 2010):

How the values were obtained:
prickly lettuce (LACSE) = assay: Test 9 field trial, emerged weeds before corn planting; format: in vivo, Lactuca serriola; details: g a.i./ha: Cpd 2 100, Glyphosate 1540, Paraquat 1150
Description: (§1) Corn seeds (hybrid ‘Pioneer 34M91 RR’) were planted in mid spring season, about 3.8 cm deep in a silty clay loam soil having a pH of 6.7. Plots were 9.1 m long by 3.0 m. The field was managed using no-till practices. […] Compound 2 and paraquat treatments, alone and in combination, also included a surfactant. Glyphosate, alone and with Compound 2, included ammonium sulfate in the treatment mixture. […] The effects on the weeds in the treated plots and untreated control plots were recorded 7, 14, 23, 30 and 57 days after application. Most of the weed species could not be evaluated at every timing. Corn response was only evaluated 57 days after application. […] Results are the means of the three replicates.

jimsonweed (DATST) = assay: Test 14 field trial, preemergence, growth as percent of control; format: in vivo, Datura stramonium
Text: (§2) Corn seeds (hybrid ‘Pioneer 31G96 RR’) were planted in mid spring season, 3.8 cm deep in a clay loam soil having 2% organic matter and a pH of 6.6. Plots were 6.1 m long by 3.0 m wide with rows spaced 76 cm apart. Seeds were spaced 15 cm apart within the rows. The field was managed using conventional tillage practices. […] Yellow nutsedge was only evaluated 19 and 28 days after application, and ivyleaf morningglory could only be evaluated 28 days after application. […] Results are the means of the three replicates. This growth inhibition data was converted to results in the form of “plant growth as a percent of control plant growth” using the calculation “100 minus growth inhibition”. […] For “growth as a percent of control” data, Colby's Equation calculates the expected additive effect of herbicidal mixtures having two active ingredients as follows:
(§3) Ga+b=GaGb/100 • wherein Ga+b is the growth as a percent of control of plants treated with the mixture expected from additive contribution of the individual components, • Ga is the observed growth as a percent of control of plants treated with the first active ingredient at the same use rate as in the mixture, and • Gb is the observed growth as a percent of control of plants treated with the second active ingredient at the same use rate as in the mixture. For mixtures having three active ingredients, Colby's Equation to calculate the expected additive effect of herbicidal mixtures is as follows:
(§4) Ga+b+c=GaGbGc/10,000 • wherein Ga and Gb are as defined above and • Ga+b+c is the growth as a percent of control of plants treated with the mixture expected from additive contribution of the individual components, and • Gc is the observed growth as a percent of control of plants treated with the third active ingredient at the same use rate as in the mixture. When these two forms of Colby's Equation are used, if the observed effects on weeds are less than the expected values, the mixture is synergistic.

field violet (VIOAR) = assay: Test 23 growth chamber, postemergence; format: in vivo, Viola arvensis; details: 21 DAA
Description: (§5) A test was conducted to evaluate the effects on winter barley (HORVW, Hordeum vulgare L.), winter wheat (TRZAW, Triticum aestivum L.), and several weed species of mixtures of Compound 2 with the commercial herbicides (2,4-dichlorophenoxy)acetic acid (2,4-D) and (4-chloro-2-methylphenoxy)acetic acid (MCPA), auxin mimics. […] Plants were treated postemergence at the 2-4 leaf growth stage, and each treatment was replicated three times. […] Plants were watered as needed. […] Results are means of the three replicates.

[1] = system: Virginia pepperweed (LEPVI); assay: Test 3 field trial, emerged weeds before corn planting; format: in vivo, Lepidium virginicum; details: Cpd 2 100, glyphosate 1540, paraquat 1150 g a.i./ha, alone or combined
Text: Corn seeds (hybrid ‘Pioneer 33J56’) were planted in early spring season, 3.8 cm deep in a silt loam soil having 2.4% organic matter and a pH of 6. Plots were 6.1 m long by 2.7 m wide with rows spaced 91.4 cm apart. The field was managed using no-till practices. […] Compound 2 and paraquat treatments, alone and in combination, also included a surfactant. Glyphosate, alone and with Compound 2, included ammonium sulfate in the treatment mixture. […] The effects on the weeds in the treated plots and untreated control plots were recorded 30, 42, 46 and 68 days after application. Most of the weed species could not be evaluated at every timing. Corn response was not evaluated because the growth was highly variable depending on the efficacy of the weed control treatments. […] Results are the means of the three replicates.

[2] = system: ladysthumb smartweed (POLPE); assay: Test 14 field trial, preemergence, growth as percent of control; format: in vivo, Polygonum persicaria
Text: as §2, §3, §4

velvetleaf (ABUTH) = assay: Test 2 field trial, preemergence; format: in vivo, Abutilon theophrasti; design: scale not given here
Text: Corn seeds (hybrid ‘Pioneer 31G96’) were planted in mid spring season, 3.8 cm deep in a clay loam soil having 2% organic matter and a pH of 6.6. Plots were 6.1 m long by 3.0 m wide with rows spaced 76 cm apart. Seeds were spaced 15 cm apart within the rows. The field was managed using conventional tillage practices. […] A few of the weed species could not be evaluated at every timing. […] Results are the means of the three replicates.

[3] = system: common lambsquarters (CHEAL); assay: Test 9 field trial, emerged weeds before corn planting; format: in vivo, Chenopodium album; details: 57 DAA; g a.i./ha: Cpd 2 100, Glyphosate 1540, Paraquat 1150
Description: as §1

field poppy (PAPRH) = assay: Test 23 growth chamber, postemergence; format: in vivo, Papaver rhoeas; details: 21 DAA
Description: as §5

[4] = 18 DAA, g a.i./ha: Cpd 2 25, Atrazine 250
[5] = 18 DAA, g a.i./ha: Cpd 2 50, Atrazine 500
[6] = 18 DAA, g a.i./ha: Cpd 2 75, Atrazine 750
[7] = 18 DAA, g a.i./ha: Cpd 2 100, Atrazine 1000
[8] = 18 DAA, g a.i./ha: Cpd 2 150, Atrazine 1500
[9] = 28 DAA, g a.i./ha: Cpd 2 25, Atrazine 250
[10] = 28 DAA, g a.i./ha: Cpd 2 50, Atrazine 500
[11] = 28 DAA, g a.i./ha: Cpd 2 75, Atrazine 750
[12] = 28 DAA, g a.i./ha: Cpd 2 100, Atrazine 1000
[13] = 28 DAA, g a.i./ha: Cpd 2 150, Atrazine 1500
[14] = 55 DAA, g a.i./ha: Cpd 2 25, Atrazine 250
[15] = 55 DAA, g a.i./ha: Cpd 2 50, Atrazine 500
[16] = 55 DAA, g a.i./ha: Cpd 2 75, Atrazine 750
[17] = 55 DAA, g a.i./ha: Cpd 2 100, Atrazine 1000
[18] = 55 DAA, g a.i./ha: Cpd 2 150, Atrazine 1500
[19] = 2,4-D or MCPA alone 250 g a.i./ha

In the case of `COC(=O)c1nc(C2CC2)nc(N)c1Cl` [Compound 2, methyl 6-amino-5-chloro-2-cyclopropyl-4-pyrimidinecarboxylate], the “LACSE Obs” value (prickly lettuce (LACSE); 7 DAA) is reported as 58%, the “LACSE Obs” value (prickly lettuce (LACSE); 14 DAA) is reported as 63% and the “LACSE Obs” value (prickly lettuce (LACSE); 23 DAA) is reported as 70%. The “LACSE Obs” value (prickly lettuce (LACSE); 30 DAA) was 88%, the “LACSE Obs” value (prickly lettuce (LACSE); 57 DAA) was 98% and the “Obs growth % of control” value (jimsonweed (DATST); 19 DAA, 75 g a.i./ha) was 93%. For the same compound, the “Obs growth % of control” value (jimsonweed (DATST); 19 DAA, 100 g a.i./ha) was 73%, the “Obs growth % of control” value (jimsonweed (DATST); 28 DAA, 75 g a.i./ha) was 32% and the “Obs growth % of control” value (jimsonweed (DATST); 28 DAA, 100 g a.i./ha) was 30%. For the same compound, the “Obs growth % of control” value (jimsonweed (DATST); 56 DAA, 75 g a.i./ha) was 0%, the “Obs growth % of control” value (jimsonweed (DATST); 56 DAA, 100 g a.i./ha) was 5% and the “Postemergence VIOAR Obs” value (field violet (VIOAR); Cpd 2 alone 4 g a.i./ha) was 60. The “Postemergence VIOAR Obs” value (field violet (VIOAR); Cpd 2 alone 8 g a.i./ha) was 63, the “Postemergence VIOAR Obs” value (field violet (VIOAR); Cpd 2 alone 16 g a.i./ha) was 72 and the “LEPVI Obs” value ([1]; 30 DAA) was 69%. For the same compound, the “LEPVI Obs” value ([1]; 42 DAA) was 18%, the “LEPVI Obs” value ([1]; 46 DAA) was 23% and the “Obs growth % of control” value ([2]; 19 DAA, 75 g a.i./ha) was 88%. For the same compound, the “Obs growth % of control” value ([2]; 19 DAA, 100 g a.i./ha) was 77%, the “Obs growth % of control” value ([2]; 28 DAA, 75 g a.i./ha) was 45% and the “Obs growth % of control” value ([2]; 28 DAA, 100 g a.i./ha) was 58%. The “Obs growth % of control” value ([2]; 56 DAA, 75 g a.i./ha) was 75%, the “Obs growth % of control” value ([2]; 56 DAA, 100 g a.i./ha) was 80% and the “ABUTH Obs” value (velvetleaf (ABUTH); [4]) was 13. The “ABUTH Obs” value (velvetleaf (ABUTH); [5]) was 28, the “ABUTH Obs” value (velvetleaf (ABUTH); [6]) was 45 and the “ABUTH Obs” value (velvetleaf (ABUTH); [7]) was 45. The “ABUTH Obs” value (velvetleaf (ABUTH); [8]) was 52, the “ABUTH Obs” value (velvetleaf (ABUTH); [9]) was 13 and the “ABUTH Obs” value (velvetleaf (ABUTH); [10]) was 18. For the same compound, the “ABUTH Obs” value (velvetleaf (ABUTH); [11]) was 65, the “ABUTH Obs” value (velvetleaf (ABUTH); [12]) was 63 and the “ABUTH Obs” value (velvetleaf (ABUTH); [13]) was 73. The “ABUTH Obs” value (velvetleaf (ABUTH); [14]) was 38, the “ABUTH Obs” value (velvetleaf (ABUTH); [15]) was 55 and the “ABUTH Obs” value (velvetleaf (ABUTH); [16]) was 63. The “ABUTH Obs” value (velvetleaf (ABUTH); [17]) was 68, the “ABUTH Obs” value (velvetleaf (ABUTH); [18]) was 78 and the “CHEAL Obs” value [3] was 95%. The “Postemergence PAPRH Obs” value (field poppy (PAPRH); Cpd 2 alone 4 g a.i./ha) was 53, the “Postemergence PAPRH Obs” value (field poppy (PAPRH); Cpd 2 alone 8 g a.i./ha) was 58 and the “Postemergence PAPRH Obs” value (field poppy (PAPRH); Cpd 2 alone 16 g a.i./ha) was 72.
With `CCNc1nc(Cl)nc(NC(C)C)n1` [Atrazine, atrazine, reference compound] the “ABUTH Obs” value (velvetleaf (ABUTH); [4]) was 15, the “ABUTH Obs” value (velvetleaf (ABUTH); [5]) was 45 and the “ABUTH Obs” value (velvetleaf (ABUTH); [6]) was 55. For the same compound, the “ABUTH Obs” value (velvetleaf (ABUTH); [7]) was 62, the “ABUTH Obs” value (velvetleaf (ABUTH); [8]) was 64 and the “ABUTH Obs” value (velvetleaf (ABUTH); [9]) was 37. For the same compound, the “ABUTH Obs” value (velvetleaf (ABUTH); [10]) was 78, the “ABUTH Obs” value (velvetleaf (ABUTH); [11]) was 85 and the “ABUTH Obs” value (velvetleaf (ABUTH); [12]) was 98. The “ABUTH Obs” value (velvetleaf (ABUTH); [13]) was 99, the “ABUTH Obs” value (velvetleaf (ABUTH); [14]) was 68 and the “ABUTH Obs” value (velvetleaf (ABUTH); [15]) was 63. The “ABUTH Obs” value (velvetleaf (ABUTH); [16]) was 87, the “ABUTH Obs” value (velvetleaf (ABUTH); [17]) was 100 and the “ABUTH Obs” value (velvetleaf (ABUTH); [18]) was 99.
With `CCc1cccc(C)c1N(C(=O)CCl)[C@@H](C)COC` [S-Metolachlor, S-metolachlor, reference compound] the “Obs growth % of control” value (jimsonweed (DATST); 19 DAA, 1870 g a.i./ha) was 100%, the “Obs growth % of control” value (jimsonweed (DATST); 28 DAA, 1870 g a.i./ha) was 22% and the “Obs growth % of control” value (jimsonweed (DATST); 56 DAA, 1870 g a.i./ha) was 30%. For the same compound, the “Obs growth % of control” value ([2]; 19 DAA, 1870 g a.i./ha) was 100% and the “Obs growth % of control” value ([2]; 28 DAA, 1870 g a.i./ha) was 53%.
For `O=C(O)COc1ccc(Cl)cc1Cl` [2,4-D, (2,4-dichlorophenoxy)acetic acid], the “Postemergence VIOAR Obs” value (field violet (VIOAR); [19]) was 63 and the “Postemergence PAPRH Obs” value (field poppy (PAPRH); [19]) was 52.
In the case of `O=C(O)CNCP(=O)(O)O` [Glyphosate], the “LACSE Obs” value (prickly lettuce (LACSE); 7 DAA) is reported as 45%, the “LACSE Obs” value (prickly lettuce (LACSE); 14 DAA) is reported as 87% and the “LACSE Obs” value (prickly lettuce (LACSE); 23 DAA) is reported as 99%. For the same compound, the “LACSE Obs” value (prickly lettuce (LACSE); 30 DAA) was 100%, the “LACSE Obs” value (prickly lettuce (LACSE); 57 DAA) was 100% and the “LEPVI Obs” value ([1]; 30 DAA) was 98%. The “LEPVI Obs” value ([1]; 42 DAA) was 82%, the “LEPVI Obs” value ([1]; 46 DAA) was 98% and the “CHEAL Obs” value [3] was 0%.
